Test results reported in publication PMC11540889, “In Vitro Cytotoxicity of Fluorinated Quaternary Ammonium Salts in Colorectal Cancer Cells and In Silico Pharmacology” (Advances in Pharmacological and Pharmaceutical Sciences, 2024).
Like-named read-outs stand apart in the source and are kept apart here.

How the values were obtained:
[1] = Ex vivo MTT cytotoxicity, healthy murine colorectal tissue; type: cell-based, BALB/c mice; settings: BALB/c, mouse, healthy murine colorectal tissue (MCRT) pieces, ex vivo, nontumoral control, MTT, 48 h, mean ± SD
Method: (§1) The compounds were solubilized in dimethyl sulfoxide (DMSO, Fischer Chemical, NJ, USA) at 50,000 μg/mL and stored at −20°C until use. From the stock solution, six serial 1:2 double dilutions of each compound were prepared to start with concentrations of 100, 50, 25, 12.5, 6.25, and 3.125 μg/mL, respectively. 5-FU, one of the conventional drugs to treat CRC [34], was used as an antitumor compound control at concentrations ranging between 800 and 0.625 μM.
(§2) SW948 (Dukes' Type C, Grade III, premetastatic colorectal adenocarcinoma—CCL-237), SW48 (Dukes' Type C, Grade IV, noninvasive colorectal adenocarcinoma—CCL231), and SW620 (Dukes' Type C, Grade IV invasive colorectal adenocarcinoma—CCL227) (American Type Culture Collection Manassas, VA, USA) were maintained in standard conditions at 37°C, without a CO2 atmosphere. PBMCs and MCRT were used as nontumoral control cells. PBMCs were obtained by healthy donors, separated using Histopaque-1077 (Sigma-Aldrich) and cultured in RPMI-1640 medium (Sigma-Aldrich) supplemented with 10% SFB and 1% penicillin/streptomycin [46]. In turn, MCRT were obtained from healthy BALB/c mice; for this, mice were euthanized with CO2 after previous sedation, the colorectal tissue removed, cleaned up, and cut into 2 × 2 mm pieces, suspended in supplemented DMEM, and used immediately after collection. […] Moreover, the inclusion of PBMC also served to assess the systemic toxicity of FQAS.
(§3) The cytotoxic activity of synthesized FQASs and QASs was studied by measuring cell viability/mortality, determined with the MTT (3-(4,5-dimethylthiazol-2-yl)-2,5-diphenyl tetrazole bromide) method (VWR Chemicals and Reagents Avantor), upon exposure of each cell line to six serial dilutions of the different compounds independently. Unexposed cells were included as viability controls, and cells exposed to 5-FU were included as cytotoxicity controls. Briefly, cells were adjusted to 200,000 cells/mL in the corresponding supplemented culture medium, and 100 μL (20,000 cells/well) were dispensed into each 96-well cell culture plate (Nunc, Thermo Fisher Scientific). Twelve hours after seeding the monolayer, 100 μL dilution of each compound was added to each well; the plates containing CRC were incubated at 37°C in the absence of CO2, while plates with PBMCs and MCRT were incubated at 37°C and 5% CO2 atmosphere. For MCRT, each piece was placed into each well of a 96-well plate and exposed to each dilution of the FQASs and QASs. After 48 h of incubation, 30 μL/well of MTT (5 mg/mL) was added, and plates were left at 37°C for 3 h, protected from light. After this time, 100 μL/well of DMSO was added to solubilize the formazan crystals formed. Plates were read at 570 nm on a Varioskan plate reader (Thermo Fisher), and nonspecific absorbance was corrected by subtracting the optical densities (OD) of the blank solutions corresponding to the supplemented culture media (RPMI 1640, DMEM, or L-15 media) and 0.5% DMSO. Each concentration of the FQASs, QASs, and controls was evaluated in duplicate in three independent experiments.
(§4) The percentages of viability (equation (1)) and mortality (equation (2)) were calculated with the net OD:(1) % viability=OD treated cell÷nontreated cells×100, (2) % mortality=100−% viability.
(§5) The %mortality data for each compound concentration was recorded, and the median cytotoxic concentration (CC50), corresponding to the concentration at which 50% of cell death occurs, was calculated using GraphPad Prism 8 software (GraphPad, Software, Inc., La Jolla, CA, USA). […] Lastly, the index of selectivity (IS) was calculated by dividing the CC50 value obtained for control cells (MCRT and PBMCs) by the CC50 value obtained for each CRC cell phenotype using the formula: IS = CC50 (MCRT or PBMC) ÷ CC50 (SW948, SW48 or SW620).

[2] = system: SW620 (Dukes' Type C, Grade IV invasive colorectal adenocarcinoma); experiment: MTT cytotoxicity, SW620 cells; settings: for CC50: Homo sapiens; for Index of selectivity MCRT / SW620: IS = CC50 MCRT ÷ CC50 SW620; for Index of selectivity PBMC / SW620: IS = CC50 PBMC ÷ CC50 SW620
Method: as §1, §2, §3, §4, §5

[3] = system: SW948 (Dukes' Type C, Grade III, premetastatic colorectal adenocarcinoma); experiment: MTT cytotoxicity, SW948 cells; settings: for CC50: SW948 cells, MTT, 48 h, mean ± SD; for Index of selectivity MCRT / SW948: IS = CC50 MCRT ÷ CC50 SW948; for Index of selectivity PBMC / SW948: IS = CC50 PBMC ÷ CC50 SW948
Method: as §1, §2, §3, §4, §5

[4] = system: SW48 (Dukes' Type C, Grade IV, noninvasive colorectal adenocarcinoma); experiment: MTT cytotoxicity, SW48 cells; settings: for CC50: SW48 cells, MTT, 48 h, mean ± SD; for Index of selectivity MCRT / SW48: IS = CC50 MCRT ÷ CC50 SW48; for Index of selectivity PBMC / SW48: IS = CC50 PBMC ÷ CC50 SW48
Method: as §1, §2, §3, §4, §5

[5] = MTT cytotoxicity, peripheral blood mononuclear cells; type: cell-based; settings: human, peripheral blood mononuclear cells (PBMC); PBMC, nontumoral control, MTT, 48 h, mean ± SD
Method: as §1, §2, §3, §4, §5

[6] = system: CRC cell lines SW48, SW620, and SW948; experiment: MTT cytotoxicity across CRC cell lines (pooled statements, selectivity between lines); type: cell-based; settings: for Index of selectivity SW48 vs. SW620: IS = CC50 SW48 ÷ CC50 SW620; for Index of selectivity SW948 vs. SW48: IS = CC50 SW948 ÷ CC50 SW48; for Index of selectivity SW948 vs. SW620: IS = CC50 SW948 ÷ CC50 SW620
Method: as §1, §2, §3, §4
The %mortality data for each compound concentration was recorded, and the median cytotoxic concentration (CC50), corresponding to the concentration at which 50% of cell death occurs, was calculated using GraphPad Prism 8 software (GraphPad, Software, Inc., La Jolla, CA, USA). […]

SMILES | CC50 at 48 h [1] [µM] | CC50 ([2]; 48 h) [µM] | Index of selectivity MCRT / SW620 [2] | Index of selectivity PBMC / SW620 [2] | CC50 ([3]; Homo sapiens, SW948, 48 h) [µM] | Index of selectivity MCRT / SW948 [3] | Index of selectivity PBMC / SW948 [3] | CC50 ([4]; Homo sapiens, SW48, 48 h) [µM] | Index of selectivity MCRT / SW48 [4] | Index of selectivity PBMC / SW48 [4] | CC50 at 48 h [5] [µM] | Index of selectivity SW48 vs. SW620 [6] | Index of selectivity SW948 vs. SW48 [6] | Index of selectivity SW948 vs. SW620 [6] | CC50 ([2]; SW-620) [µM] | further results
C[N+](C)(C)CCCC=C(c1cccc(F)c1)c1cccc(F)c1 [Compound 1] | 212 ± 4 | 63.7 ± 15.3 | 3.3 | 0.5 | 211 ± 7.4 | 1.0 | 0.1 | 105 ± 12 | 2.0 | 0.3 | 29.8 ± 2.4 | 1.7 | 2.0 | 3.3 |  | 
C[N+](C)(CI)CCCC=C(c1ccc(F)cc1)c1ccc(F)cc1 [Compound 2] | 205 ± 14.5 |  | 7.3 | 1.3 | 77.9 ± 9.1 | 2.6 | 0.5 | 75.7 ± 14.2 | 2.7 | 0.47 | 35.6 ± 6.6 | 2.7 | 1.0 | 2.8 |  | CC50 ([2]; SW-620, read-out: LC50 (Figure 2c)): 28.1 µM
C[N+](C)(CCl)CCCCC=C(c1ccc(F)cc1)c1ccc(F)cc1 [Compound 3] | 130 ± 20 | 64.5 ± 8.1 | 2.0 | 0.6 | 52.9 ± 13.8 | 2.5 | 0.8 | 125 ± 5.1 | 1.0 | 0.32 | 39.7 ± 7.7 | 1.9 | 0.4 | 0.8 |  | 
C[N+](C)(CI)CCCCC=C(c1ccc(F)cc1)c1ccc(F)cc1 [Compound 4] | 107 ± 4.5 | 52.5 ± 5.6 | 2.0 | 0.9 | 72.8 ± 12.8 | 1.5 | 0.6 | 100 ± 3 | 1.1 | 0.45 | 45.1 ± 7.3 | 1.9 | 0.7 | 1.4 |  | 
O=c1[nH]cc(F)c(=O)[nH]1 [Compound 5-FU, 5-fluorouracil, reference compound] | 945 ± 43.7 | 30.3 ± 6 | 31.2 | 1.3 | 30.3 ± 5.2 | 31.2 | 1.3 | 30.3 | 33.9 | 1.4 | 38.7 ± 7 | 0.9 | 1.1 | 1.0 | 27.9 | cytotoxicity level (high/moderate/low) [2]: High; cytotoxicity level (high/moderate/low) [3]: High; cytotoxicity level (high/moderate/low) [4]: High
C[N+](C)(CCl)CCCC=C(c1cccc(C(F)(F)F)c1)c1cccc(C(F)(F)F)c1 [Compound 5] | 121 ± 5.4 | 24.5 ± 2.3 | 4.9 | 1.4 | 24.5 | 2.8 | 0.8 | 43.5 | 2.3 | 0.66 | 34.8 ± 6 | 2.1 | 0.8 | 1.8 | 52 | CC50 [3]: 43.5 ± 4 µM; CC50 [4]: 52 ± 9.2 µM
